Patent US7595310B2, “Glucuronate salt of a piperazine compound” (Solvay Pharmaceuticals, B.V., priority 2005, dated 2009)

Legend:
D2 receptors = D2 receptors (Homo sapiens, UniProt P14416); settings: in therapeutic models; cited from earlier work
[1] = rodents; cited from earlier work
5HT reuptake = settings: in therapeutic models; cited from earlier work
[2] = in vivo; cited from earlier work
[3] = Comparative equilibrium solubility of salts of compound 1; settings: pH printed beside the equilibrium solubility

D2 receptors, sequence (P14416 whole entry): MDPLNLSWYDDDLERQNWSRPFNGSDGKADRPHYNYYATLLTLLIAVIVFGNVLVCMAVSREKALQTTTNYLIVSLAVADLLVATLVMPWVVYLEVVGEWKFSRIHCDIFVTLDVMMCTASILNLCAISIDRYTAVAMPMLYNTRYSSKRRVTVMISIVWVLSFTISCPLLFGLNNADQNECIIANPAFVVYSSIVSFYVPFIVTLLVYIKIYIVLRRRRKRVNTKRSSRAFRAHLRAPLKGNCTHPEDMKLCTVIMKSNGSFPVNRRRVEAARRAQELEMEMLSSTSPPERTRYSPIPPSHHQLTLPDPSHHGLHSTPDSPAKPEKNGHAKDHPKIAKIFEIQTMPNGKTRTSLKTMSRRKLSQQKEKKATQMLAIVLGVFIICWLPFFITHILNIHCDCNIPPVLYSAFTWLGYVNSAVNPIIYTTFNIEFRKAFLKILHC

SMILES | activity at D2 receptors (D2 receptors) | propensity to induce catalepsy [1] | activity against 5HT reuptake (5HT reuptake) | activity in therapeutic models sensitive to clinically relevant antipsychotics, antidepressants, anxiolytics, Parkinson's disease [2] | pH ([3]; listed as freebase (1)) | pH ([3]; listed as glucuronate (2))
CC1Oc2c(cccc2N2CCN(CCCc3c[nH]c4ccc(F)cc34)CC2)NC1=O (stereo not drawn) [compound 1, 8-{4-[3-(5-fluoro-1H-indol-3-yl)-propyl]-piperazin-1-yl}-2-methyl-4H-benzo[1,4]oxazin-3-one] | antagonistic activity | low propensity | inhibitory activity | active | 4.72 | –
CC1Oc2c(cccc2N2CCN(CCCc3c[nH]c4ccc(F)cc34)CC2)NC1=O (stereo not drawn) [compound 2] | – | – | – | – | – | 4.25
